system: human monocytic cell line U937; assay: Human U937 cellular necroptosis assay (TNFalpha + z-VAD-FMK, Cell Titer-Glo viability); format: cell-based; conditions: Homo sapiens, U-937, 22 h, U937 cells, 25 ng/mL human TNFalpha + 25 μM z-VAD-FMK, read-out: hU937 Avg IC50
Description: The human monocytic cell line U937 (CRL-1593.2) was purchased from ATCC. The cells were routinely maintained in RPMI-1640 Medium (Gibco, Catalog #11875-093) supplemented with 10% heat inactivated fetal bovine serum (Gibco, Catalog #16140-071), 100 units/mL penicillin and 100 μg/mL streptomycin (Gibco, Catalog #15140-122), in a humidified incubator (37° C., 5% CO2). For the assay, cells were resuspended in RPMI-1640 phenol red free Media (Gibco, Catalog #11835-030) supplemented with 10% fetal bovine serum (Sigma, Catalog #F2442), 100 units/mL penicillin and 100 ug/mL streptomycin. Cells were stimulated with 25 ng/mL human TNFalpha (Cell Sciences, Catalog #CSI15659B) and 25 μM z-VAD-FMK (R&D Systems, Catalog #FMK001) followed by seeding 5000 cells per well in a volume of 40 μL to a white, CulturPlate-384 (Perkin Elmer, Catalog #6007680). Stock solutions of the test compounds were prepared in 100% DMSO (Sigma, Catalog #D2650) and serially diluted 1:3 using 100% DMSO. Compounds were additionally diluted 1:40 in assay medium, and 10 μL/well was transferred to the plate. Following the compound addition the plate was incubated at 37° C. and 5% CO2 for 22 h. After 22 h, viability was assessed with the addition of 20 μL of Cell Titer-Glo 2.0 (Promega, Catalog #G9243). The tissue culture plate was shaken on an orbital shaker at 300 RPM for 15 minutes at rt in the dark. Luminescence was measured using a PerkinElmer Envision™ plate reader. IC50 values were calculated using a four-parameter logistic curve fit using Genedata Screener software. Results are shown below in Table 3, where the average value across multiple runs is given.

Compared with CN(CC12CC(C(=O)N3N=CCC3c3cc(F)cc(F)c3)(C1)C2)c1cnc(C#N)cn1 (stereo not shown) [Example 206, 5-(((3-(5-(3,5-Difluorophenyl)-4,5-dihydro-1H-pyrazole-1-carbonyl)bicyclo[1.1.1]pentan-1-yl)methyl)(methyl)amino)pyrazine-2-carbonitrile], N#Cc1cnc(OCC23CC(C(=O)N4N=CCC4c4cc(F)cc(F)c4)(C2)C3)nc1 (stereo not shown) [Example 324, 2-((3-(5-(3,5-difluorophenyl)-4,5-dihydro-1H-pyrazole-1-carbonyl)bicyclo[1.1.1]pentan-1-yl)methoxy)pyrimidine-5-carbonitrile] is 1.5-fold higher in IC50: 109 nM for the first, 166 nM for the second. The first is the more potent here.

Cc1cccc(C2CC=NN2C(=O)C23CC(COc4ccc(C#N)cn4)(C2)C3)c1 (stereo not shown) [Example 279, 6-((3-(5-(m-tolyl)-4,5-dihydro-1H-pyrazole-1-carbonyl)-bicyclo[1.1.1]pentan-1-yl)-methoxy)nicotinonitrile] and N#Cc1ccc(OCC23CC(C(=O)N4N=CCC4c4cccc(C#N)c4)(C2)C3)nc1 (stereo not shown) [Example 281, 6-((3-(5-(3-cyanophenyl)-4,5-dihydro-1H-pyrazole-1-carbonyl)bicyclo[1.1.1]pentan-1-yl)methoxy)nicotinonitrile] are within 1.5-fold of each other in IC50: 104 nM for the first, 148 nM for the second.

Going from N#Cc1ccc(OCC23CC(C(=O)N4N=CCC4c4cc(F)c(C5CC5)c(F)c4)(C2)C3)nc1 (stereo not shown) [Example 339, 6-((3-(5-(4-cyclopropyl-3,5-difluorophenyl)-4,5-dihydro-1H-pyrazole-1-carbonyl)-bicyclo[1.1.1]pentan-1-yl)-methoxy)nicotinonitrile] to Cc1c(F)cc(C2CC=NN2C(=O)C23CC(COc4ccc(C#N)cn4)(C2)C3)cc1F (stereo not shown) [Example 264, 6-((3-(5-(3,5-difluoro-4-methylphenyl)-4,5-dihydro-1H-pyrazole-1-carbonyl)-bicyclo[1.1.1]pentan-1-yl)-methoxy)nicotinonitrile], the IC50 falls from 453 nM to 12 nM (38-fold).

N#Cc1cnc(OCC23CC(C(=O)NCc4c(F)cccc4F)(C2)C3)cn1 [Example 294, 3-(((5-cyanopyrazin-2-yl)oxy)-methyl)-N-(2,6-difluoro-benzyl)bicyclo[1.1.1]pentane-1-carboxamide] and C[C@H](NC(=O)C12CC(COc3cnc(C#N)cn3)(C1)C2)c1cc(F)ccc1F [Example 297, (S)-3-(((5-cyanopyrazin-2-yl)-oxy)methyl)-N-(1-(2,5-difluorophenyl)ethyl)bicyclo-[1.1.1]pentane-1-carboxamide] are within 1.5-fold of each other in IC50: 5610 nM for the first, 6060 nM for the second.

N#Cc1cc2cnn(CC34CC(C(=O)N5N=CCC5c5cc(F)cc(F)c5)(C3)C4)c2cc1Cl (stereo not shown) [Example 214, 6-chloro-1-((3-(5-(3,5-difluorophenyl)-4,5-dihydro-1H-pyrazole-1-carbonyl)-bicyclo[1.1.1]pentan-1-yl)-methyl)-1H-indazole-5-carbonitrile] and N#Cc1ccc2c(cnn2CC23CC(C(=O)N4N=CCC4c4cc(F)c(C5CC5)c(F)c4)(C2)C3)c1 (stereo not shown) [Example 340, 1-((3-(5-(4-cyclopropyl-3,5-difluorophenyl)-4,5-dihydro-1H-pyrazole-1-carbonyl)-bicyclo[1.1.1]pentan-1-yl)-methyl)-1H-indazole-5-carbonitrile] are within 1.5-fold of each other in IC50: 71 nM for the first, 54 nM for the second.

First: N#Cc1cnc(OCC23CC(C(=O)N4N=CCC4c4cncc(F)c4)(C2)C3)cn1 (stereo not shown) [Example 277, 5-((3-(5-(5-fluoropyridin-3-yl)-4,5-dihydro-1H-pyrazole-1-carbonyl)bicyclo[1.1.1]-pentan-1-yl)methoxy)pyrazine-2-carbonitrile]
Second: N#Cc1cnc(OCC23CC(C(=O)N4N=CCC4c4cccc(F)c4F)(C2)C3)cn1 (stereo not shown) [Example 306, 5-((3-(5-(2,3-difluorophenyl)-4,5-dihydro-1H-pyrazole-1-carbonyl)bicyclo[1.1.1]pentan-1-yl)methoxy)pyrazine-2-carbonitrile]
The IC50 of the first is 12-fold higher: 81 nM for the first, 6.6 nM for the second. The second is the more potent here.

First: N#Cc1ccc2c(cnn2CC23CC(C(=O)N4N=CCC4c4cccc(Cl)c4Cl)(C2)C3)c1 (stereo not shown) [Example 245, 1-((3-(5-(2,3-dichlorophenyl)-4,5-dihydro-1H-pyrazole-1-carbonyl)bicyclo[1.1.1]pentan-1-yl)methyl)-1H-indazole-5-carbonitrile]
Second: N#Cc1ccc2c(cnn2CC23CC(C(=O)N4N=CCC4c4cccc(F)c4F)(C2)C3)c1 (stereo not shown) [Example 237, 1-((3-(5-(2,3-difluoropheny1)-4,5-dihydro-1H-pyrazole-1-carbonyl)bicyclo[1.1.1]pentan-1-yl)methyl)-1H-indazole-5-carbonitrile]
The IC50 of the first is 5.5-fold higher: 43 nM for the first, 7.8 nM for the second.

First: N#Cc1cnc(OCC23CC(C(=O)N4N=CCC4c4ccc(C(F)(F)F)cc4)(C2)C3)cn1 (stereo not shown) [Example 312, 5-((3-(5-(4-(trifluoromethyl)-phenyl)-4,5-dihydro-1H-pyrazole-1-carbonyl)bicyclo-[1.1.1]pentan-1-yl)methoxy)-pyrazine-2-carbonitrile]
Second: Cc1ccc(C2CC=NN2C(=O)C23CC(COc4cnc(C#N)cn4)(C2)C3)cc1 (stereo not shown) [Example 198, 5-((3-(5-(p-Tolyl)-4,5-dihydro-1H-pyrazole-1-carbonyl)bicyclo[1.1.1]pentan-1-yl)methoxy)pyrazine-2-carbonitrile]
The IC50 of the first is 8.4-fold higher: 62 nM for the first, 7.4 nM for the second.

Going from C[C@@H](c1ccccc1F)N(C)C(=O)C12CC(COc3cnc(C#N)cn3)(C1)C2 [Example 295, (S)-3-(((5-cyanopyrazin-2-yl)oxy)methyl)-N-(1-(2-fluoro-phenyl)ethyl)-N-methyl-bicyclo[1.1.1]pentane-1-carboxamide] to Cc1nc(OCC23CC(C(=O)N4N=CCC4c4cnc(C#N)cn4)(C2)C3)ccc1F (stereo not shown) [Example 313, 5-(1-(3-(((5-fluoro-6-methylpyridin-2-yl)oxy)-methyl)bicyclo[1.1.1]pentane-1-carbonyl)-4,5-dihydro-1H-pyrazol-5-yl)pyrazine-2-carbonitrile], the IC50 falls from 5680 nM to 251 nM (23-fold). The second is the more potent here.

Compared with Cc1cnc(C2CC=NN2C(=O)C23CC(COc4ccc(C#N)cn4)(C2)C3)cn1 (stereo not shown) [Example 282, 6-((3-(5-(5-methylpyrazin-2-yl)-4,5-dihydro-1H-pyrazole-1-carbonyl)bicyclo[1.1.1]-pentan-1-yl)methoxy)-nicotinonitrile], Cc1c(F)cc([C@@H]2CC=NN2C(=O)C23CC(COc4ccc(C#N)cn4)(C2)C3)cc1F [Example 265, (S)-6-((3-(5-(3,5-difluoro-4-methylphenyl)-4,5-dihydro-1H-pyrazole-1-carbonyl)-bicyclo[1.1.1]pentan-1-yl)-methoxy)nicotinonitrile] is 18-fold lower in IC50: 153 nM for the first, 8.3 nM for the second. The second is the more potent here.

First: Cn1cc(-c2ccc(OCC34CC(C(=O)N5N=CCC5c5cc(F)cc(F)c5)(C3)C4)c(F)c2)cn1 (stereo not shown) [Example 204, (5-(3,5-Difluorophenyl)-4,5-dihydro-1H-pyrazol-1-yl)(3-((2-fluoro-4-(1-methyl-1H-pyrazol-4-yl)phenoxy)methyl)bicyclo[1.1.1]pentan-1-yl)methanone]
Second: N#Cc1ccc(OCC23CC(C(=O)N4N=CCC4c4cc(F)c(CO)c(F)c4)(C2)C3)nc1 (stereo not shown) [Example 342, 6-((3-(5-(3,5-difluoro-4-(hydroxymethyl)phenyl)-4,5-dihydro-1H-pyrazole-1-carbonyl)bicyclo[1.1.1]pentan-1-yl)methoxy)nicotinonitrile]
The IC50 of the first is 17-fold lower: 22 nM for the first, 380 nM for the second. The first is the more potent here.

Compared with Cc1cccc(C2CC=NN2C(=O)C23CC(Cn4ncc5cc(C#N)ccc54)(C2)C3)c1 (stereo not shown) [Example 243, 1-((3-(5-(m-tolyl)-4,5-dihydro-1H-pyrazole-1-carbonyl)-bicyclo[1.1.1]pentan-1-yl)-methyl)-1H-indazole-5-carbonitrile], Cc1ccc(C2CC=NN2C(=O)C23CC(Cn4ncc5cc(C#N)ccc54)(C2)C3)cc1 (stereo not shown) [Example 309, 1-((3-(5-(p-tolyl)-4,5-dihydro-1H-pyrazole-1-carbonyl)-bicyclo[1.1.1]pentan-1-yl)-methyl)-1H-indazole-5-carbonitrile] is 2.4-fold lower in IC50: 31 nM for the first, 13 nM for the second. The second is the more potent here.

Going from Cc1cc(F)c(C2CC=NN2C(=O)C23CC(Cn4ncc5cc(C#N)ccc54)(C2)C3)cc1F (stereo not shown) [Example 236, 1-((3-(5-(2,5-difluoro-4-methylphenyl)-4,5-dihydro-1H-pyrazole-1-carbonyl)-bicyclo[1.1.1]pentan-1-yl)-methyl)-1H-indazole-5-carbonitrile] to N#Cc1ccc2c(cnn2CC23CC(C(=O)N4C[C@@H](O)C[C@H]4c4cccc(F)c4)(C2)C3)c1 (single isomer, unassigned) [Example 262], the IC50 rises from 3.8 nM to 4670 nM (1200-fold).

Compared with N#Cc1ccc(OCC23CC(C(=O)N4N=CCC4c4cccc(Cl)c4Cl)(C2)C3)nc1 (stereo not shown) [Example 290, 6-((3-(5-(2,3-dichlorophenyl)-4,5-dihydro-1H-pyrazole-1-carbonyl)bicyclo[1.1.1]pentan-1-yl)methoxy)nicotinonitrile], N#Cc1cnc(OCC23CC(C(=O)N4N=CCC4c4ncc5ccccn45)(C2)C3)cn1 (stereo not shown) [Example 316, 5-((3-(5-(imidazo[1,5-a]-pyridin-3-yl)-4,5-dihydro-1H-pyrazole-1-carbonyl)bicyclo-[1.1.1]pentan-1-yl)methoxy)-pyrazine-2-carbonitrile] is 1.6-fold higher in IC50: 445 nM for the first, 694 nM for the second. The first is the more potent here.

— patent US20250214942A1, “INHIBITORS OF RECEPTOR INTERACTING PROTEIN KINASE I FOR THE TREATMENT OF DISEASE” (Board of Regents, The University of Texas System, priority 2019, published 2025)
